Test results from patent US20010011128A1, “Hex II tumor-specific promoter and uses thereof” (priority 1996, published 2001).

What was measured:
[1] = MTT cell viability assay, pΔE1sp1B Hex TK transfectants treated with gancyclovir; assay type: cell-based; conditions: GCV 10 or 25 ug/ml, controls GCV alone or plasmid only
Experimental: Cells in the logarithmic phase of growth were resuspended at a concentration of 2×10^5 cells/ml. 2 ml/well were plated in 6-well plates. Plates were incubated for 24 h at 37° C. in 5% CO2. Subsequently, cells were transfected with the pΔE1sp1B Hex TK plasmid as described above. […] Each condition was done in triplicate. Cells survival was calculated in the treated population as a percentage of controls. Controls are cells transfected with the plasmid alone or treated with the drug alone. MTT assays was performed two days following treatment. The formazan crystals were dissolved in […] (Fisher) and glycine buffer (0.1 M glycine-0.1 M NaCl, pH 10.5). The formazan product formed by viable cells was quantitated by measuring the absorbance at a wavelength of 570 nm.

[2] = test system: HK II promoter in NCI-H661 cells; test: Regulation of HK II promoter (pHexII4557 CAT) by glucose, insulin, glucagon; assay type: cell-based, human; conditions: NCI-H661 transfected with pHexII4557 CAT; 25 mM glucose, 100 nM insulin, 10 μM glucagon
Experimental: Transient transfections were performed using Lipofect AMINE (Canadian Life Technologies. Burlington, ON, Canada). Seventy to 80% confluent cells were transfected with 1 μg of the reporter plasmid pCAT, pMUCI-1583 CAT, pHexII4557 CAT, or pRSV CAT (Rous sarcoma virus long terminal repeat promoter) (ATCC). One microgram of pSV2-Pgalactosidase (Promega) was cotransfected as an internal control for variations in transfection efficiency in serum-free Dulbecco's modified Eagle's medium (DMEM). The medium was replaced with fresh growth medium after 6 hr. In promoter regulation experiments, the cells were transfected in RPMI 1640 glucose-deficient medium. Six hours after transfection, the medium was replaced with RPMI 1640 glucose-deficient medium supplemented with 100 nM bovine insulin. 25 mM glucose, or 10 μM glucagon (Sigma Aldrich Canada. Oakville. ON, Canada) or a combination of insulin and glucose, supplemented with 1 mM sodium pyruvate and 100 μM glucose. […] The protein concentration of the extracts was measured using the Bradford protein assay from Bio-Rad (Mississauga, ON. Canada) and equal amounts were assayed in the chloramphenicol acetyltransferase (CAT) and β-galactosidase assays, which were carried out as described by the manufacturer (Promega). Percent acetylation was measured using the Bio-Rad Gelscan Phos-phoimager and the Molecular Analyst software program. […]

[3] = test system: H661 non-small cell lung carcinoma cells; test: CAT reporter gene assay, Hex II promoter activation (first series); assay type: cell-based, human; conditions: treatment of the transfectants
Experimental: Transient transfections were performed using lipofectamine according to the manufacturer's recommendations (GIBCO-BRL). Cells were plated the day before transfection to give 60% confluency in 6-well plates. The p1583/+33MUC1.CAT or pHex4557.CAT vectors were transfected along with pSV2lacZ to determine promoter activity. 1 ug of each plasmid were used for each well. All conditions assayed were done in duplicate. The plasmids pRSV.CAT and promoterless pCAT were used as positive and negative controls, respectively. Cells extracts were prepared 48 hours after transfection and β-galactosidase activity was assayed to compensate for variations in transfection efficiency. CAT activity was determined from 75-100 ug of proteins. The reaction was carried out with 0.1 uCi of ^14C-labeled chloramphenicol in a 100 ul reaction at 37° C. for 4 hrs.

HK II mRNA in NHBECs = test: Ribonuclease protection assay of HK II mRNA; assay type: cell-based, human; conditions: 25 mM glucose, 100 nM insulin, 10 μM glucagon, 12 hr
Experimental: For regulation studies, cells were grown to subconfluence in 75-cm^2 flasks, starved in serum-free, glucose-deficient RPMI 1640 medium (Canadian Life Technologies) for 18 hr, and induced in 25 mM glucose, 100 nM insulin, and 10 μM glucagon (Sigma Aldrich Canada) for 12 hr. RNA was extracted from cells using RNAzol (Tel-Test, Friendswood, Tex.) as described by the manufacturer. Contaminating DNA was digested with 5-10 units of DNase I (Pharmacia Biotech) in 10 mM MgCl2, 1 mM dithiothreitol (DTT), […] of RNA Guard (Pharmacia Biotech), 50-80 μl of total RNA at 1 μg/μl for 30 min at 37° C., followed by precipitation of total RNA.
The HK II probe (0.1 fmol) and the human β-actin probe (2 fmol) were simultaneously hybridized to 30 μg of total RNA using the RPA II kit (Ambion, Austin, Tex.) according to the manufacturer recommendations. Probes were prepared by in vitro transcription using the MAXIscript kit (Ambion) and [α-^32P]UTP (6000 Ci/mmol, 40 mCi/ml). HK II (nucleotides 1500 to 1803 of HK II cDNA; GenBank Z-16376) was inserted in the pDP18-T7/T3 vector (Ambion). The template was cut with KpnI at the 5′ end of the insert and transcribed toward that site from the T7 promoter to produce a 430-bp transcript. The HK II-protected fragment is 303 bp. […] Quantitation was performed using the NIH Image 1.67b densitometry software.

For `Nc1nc(O)c2ncn(COC(CO)CO)c2n1` [GCV, gancyclovir], the “cell survival less than control cells” value [1] was 50%.
For “insulin: bovine insulin, regulator of glucose metabolism”, the “HK II promoter activation, increase over basal” value [2] was “did not lead to significant differences”.
With “glucagon: regulator of glucose metabolism, physiological inhibitor of Hex II” the “effect on Hex II promoter activation” value [3] was “did not inhibit promoter activation”, the “HK II promoter activation, increase over basal” value [2] was “did not lead to significant differences” and the “HK II mRNA level relative to basal” value (HK II mRNA in NHBECs) was “repressed HK II expression”.
